Source: US20230148626A1, “PROTEIN-BASED FORMING AGENT, PREPARATION METHOD AND APPLICATION THEREOF” (NORTHEAST AGRICULTURAL UNIVERSITY, priority 2021, published 2023)

Columns and labels:
[1] = pH of the original solution of GA; assay type: physicochemical
α-La [2] = molecular target: T1, α-La (Bos taurus, UniProt P00711); assay: Aggregation of GA in the presence of α-La (ANS fluorescence, CAC breakpoint); assay type: physicochemical; settings: in the presence of α-La and ANS
T1 construct: purchased Davisco Foods International
T1 sequence (P00711 20-142): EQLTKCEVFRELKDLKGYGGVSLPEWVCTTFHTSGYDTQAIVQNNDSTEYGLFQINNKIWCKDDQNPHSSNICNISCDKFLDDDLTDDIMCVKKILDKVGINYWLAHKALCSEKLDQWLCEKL
Protocol: Measurement of aggregation: adding 8-Anilino-1-naphthalenesulfonic acid (ANS) solution (80 microliter (µL), 8 mmol/L) into 4 milliliter (mL) of the mixed solutions prepared in Embodiment 1 and Embodiment 2, respectively, and standing the solutions in the dark for 15 min; measuring the aggregation with a 1 centimeter (cm) light path cuvette, setting the excitation/emission slit of the instrument to 5.0/2.5 nano-meter (nm), the excitation wavelength at 355 nm, and recording the emission spectrum as 360 - 600 nm; recording the value of the most fluorescent intensity.
The threshold concentration required to form small molecular aggregates on the surface of protein is called critical aggregation concentration (CAC), which is usually lower than critical micelle concentration (CMC). […] For example, the minimum value of fluorescence of α-La is recorded under neutral condition and 1.0 mM GA, while the minimum value is observed after adding 2.0 mM GA in acid solution; this is because the pH of the original solution of GA is 4.3, while the carboxylate of GA is protonated and its electrostatic charge is shielded when the pH is 2.5, which leads to the decrease of repulsion between GA molecules and promotes self-assembly of molecules to form aggregates; GA is easier to polymerize under acidic conditions when the concentration of α-La is constant, that is, it has a smaller CAC.

α-La [3] = molecular target: T1, α-La; assay: Binding isotherm: number of GA molecules bound per α-La molecule (endogenous fluorescence); settings: α-La 20 µmol/L, 25 °C
Protocol: Determination of the number of molecules of glycyrrhizic acid binding α-La: under 25 degree Celsius (°C) and fixed concentration of α-La of 20 µmol/L, adjusting the concentration of GA (0 - 15.0 mM) to obtain a α-La-GA mixed solution; calculating an average value (v) of each protein molecule bound to surfactant molecules by measuring the endogenous fluorescence (λex = 295 nm) of α-La-GA mixed solution, and obtaining a binding isotherm from the change of the average number with the total concentration of GA as shown in FIG. 2.
Binding isotherm allows a good understanding of protein-glycyrrhizic acid binding behavior, with the average value (v) of glycyrrhizic acid molecules bound per protein molecule as the response value being used as a criterion for determination. […] In the region II of 0.02<CGA<1.00 mM, the average value v of bound GA molecules increases slowly but obviously, where the maximum fluorescence intensity is decreased. In the region III between 1.00 mM and 15.00 mM, a large number of synergistic binding appears with the formation of protein aggregates. Moreover, the values v under different pH conditions vary greatly in regions II and III (see Table 1). Acidic conditions can induce more GA molecules to bind with α-La in the process of non-cooperative binding and cooperative binding, which may be due to the fact that the structure of α-La is unfolded under acidic conditions, prompting more hydrophobic groups to be exposed, thus making α-La binding with more GA molecules.

In the case of `CC1(C)[C@@H](O[C@H]2O[C@H](C(=O)O)[C@@H](O)[C@H](O)[C@H]2O[C@@H]2O[C@H](C(=O)O)[C@@H](O)[C@H](O)[C@H]2O)CC[C@]2(C)[C@H]3C(=O)C=C4[C@@H]5C[C@@](C)(C(=O)O)CC[C@]5(C)CC[C@@]4(C)[C@]3(C)CC[C@@H]12` [GA, glycyrrhizic acid], the “pH of the original solution of GA” value [1] is reported as 4.3, the “GA concentration at minimum value of fluorescence of α-La (breakpoint, CAC)” value (α-La [2]; acid solution) is reported as 2.0 mM and the “GA concentration at minimum value of fluorescence of α-La (breakpoint, CAC)” value (α-La [2]; neutral condition) is reported as 1.0 mM. The “average value v of GA molecules bound per protein molecule” value (α-La [3]; pH 2.5, characteristic area I, CGA 0 - 0.20) was 0 - 8.96, the “average value v of GA molecules bound per protein molecule” value (α-La [3]; pH 2.5, characteristic area II, CGA 0.20 - 1.00) was 8.96 - 48.95 and the “average value v of GA molecules bound per protein molecule” value (α-La [3]; pH 7.0, characteristic area I, CGA 0 - 0.20) was 0 - 5.22. For the same compound, the “average value v of GA molecules bound per protein molecule” value (α-La [3]; pH 7.0, characteristic area II, CGA 0.20-1.00) was 5.22 - 39.49 and the “average value v of GA molecules bound per protein molecule” value (α-La [3]; pH 7.0, characteristic area III, CGA 1.00-15.00) was 39.49 - 998.19.
